What was measured:
[1] = target: Tyrosine-protein kinase Srms (Homo sapiens) (UniProt Q9H3Y6); conditions: Compound concentration 100.0 nM
[2] = target: Histamine H3 receptor (Homo sapiens) (UniProt Q9Y5N1); conditions: Compound concentration 10.0 uM
[3] = target: Bone morphogenetic protein receptor type-2 (Homo sapiens) (UniProt Q13873); conditions: Compound concentration 100.0 nM
[4] = target: Serine/threonine-protein kinase 17B (Homo sapiens) (UniProt O94768); conditions: Compound concentration 100.0 nM
[5] = target: Serine/threonine-protein kinase mTOR (Homo sapiens) (UniProt P42345); conditions: Compound concentration 100.0 nM
[6] = target: Calcium/calmodulin-dependent protein kinase type IV (Homo sapiens) (UniProt Q16566); conditions: Compound concentration 100.0 nM
[7] = target: Interleukin-1 receptor-associated kinase 4 (Homo sapiens) (UniProt Q9NWZ3); conditions: Compound concentration 100.0 nM
[8] = target: Bone morphogenetic protein receptor type-1A (Homo sapiens) (UniProt P36894); conditions: Compound concentration 100.0 nM
[9] = target: Proto-oncogene tyrosine-protein kinase Src (Homo sapiens) (UniProt P12931); conditions: Compound concentration 100.0 nM
[10] = target: Serine/threonine-protein kinase 38-like (Homo sapiens) (UniProt Q9Y2H1); conditions: Compound concentration 100.0 nM
[11] = target: Ephrin type-A receptor 4 (Homo sapiens) (UniProt P54764); conditions: Compound concentration 100.0 nM
[12] = tested on: Phosphatidylinositol 4,5-bisphosphate 3-kinase catalytic subunit alpha isoform (Homo sapiens), P42336 [E545K]; conditions: Compound concentration 100.0 nM
[13] = target: Casein kinase I isoform epsilon (Homo sapiens) (UniProt P49674); conditions: Compound concentration 100.0 nM
[14] = target: Serine/threonine-protein kinase WNK4 (Homo sapiens) (UniProt Q96J92); conditions: Compound concentration 100.0 nM
[15] = target: Tyrosine-protein kinase Blk (Homo sapiens) (UniProt P51451); conditions: Compound concentration 100.0 nM
[16] = target: Phosphorylase b kinase gamma catalytic chain, skeletal muscle/heart isoform (Homo sapiens) (UniProt Q16816); conditions: Compound concentration 100.0 nM
[17] = target: Tyrosine-protein kinase Lyn (Homo sapiens) (UniProt P07948); conditions: Compound concentration 100.0 nM
[18] = target: Mitogen-activated protein kinase 3 (Homo sapiens) (UniProt P27361); conditions: Compound concentration 100.0 nM
[19] = target: Serine/threonine-protein kinase LATS2 (Homo sapiens) (UniProt Q9NRM7); conditions: Compound concentration 100.0 nM
[20] = tested on: Proto-oncogene tyrosine-protein kinase receptor Ret (Homo sapiens), P07949 [M918T]; conditions: Compound concentration 100.0 nM
[21] = tested on: Epidermal growth factor receptor (Homo sapiens), P00533 [G719S]; conditions: Compound concentration 100.0 nM
[22] = target: Tyrosine-protein kinase receptor UFO (Homo sapiens) (UniProt P30530); conditions: Compound concentration 100.0 nM
[23] = target: Protein kinase C eta type (Homo sapiens) (UniProt P24723); conditions: Compound concentration 100.0 nM
[24] = target: Receptor-type tyrosine-protein kinase FLT3 (Homo sapiens) (UniProt P36888); conditions: Compound concentration 100.0 nM
[25] = target: NUAK family SNF1-like kinase 1 (Homo sapiens) (UniProt O60285); conditions: Compound concentration 100.0 nM
[26] = target: Serine/threonine-protein kinase BRSK1 (Homo sapiens) (UniProt Q8TDC3); conditions: Compound concentration 100.0 nM
[27] = target: T1, 5-hydroxytryptamine receptor 1A (Homo sapiens) (UniProt P08908); conditions: Compound concentration 10.0 uM
T1 sequence (whole entry): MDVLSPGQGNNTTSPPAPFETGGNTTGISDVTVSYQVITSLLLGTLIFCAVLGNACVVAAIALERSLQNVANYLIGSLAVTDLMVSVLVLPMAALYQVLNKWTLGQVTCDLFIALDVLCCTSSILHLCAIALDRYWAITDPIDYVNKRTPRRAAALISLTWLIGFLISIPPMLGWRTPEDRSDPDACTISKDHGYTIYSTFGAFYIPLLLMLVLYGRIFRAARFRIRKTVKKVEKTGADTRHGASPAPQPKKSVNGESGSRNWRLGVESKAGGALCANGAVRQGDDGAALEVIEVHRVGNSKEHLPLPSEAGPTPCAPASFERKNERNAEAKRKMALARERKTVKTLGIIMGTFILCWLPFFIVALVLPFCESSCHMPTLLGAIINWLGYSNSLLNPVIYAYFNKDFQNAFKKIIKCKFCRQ

[28] = target: Calcium/calmodulin-dependent protein kinase kinase 1 (Homo sapiens) (UniProt Q8N5S9); conditions: Compound concentration 100.0 nM
[29] = target: cAMP-dependent protein kinase catalytic subunit alpha (Homo sapiens) (UniProt P17612); conditions: Compound concentration 100.0 nM
[30] = target: Tyrosine-protein kinase SYK (Homo sapiens) (UniProt P43405); conditions: Compound concentration 100.0 nM
[31] = target: Protein-tyrosine kinase 2-beta (Homo sapiens) (UniProt Q14289); conditions: Compound concentration 100.0 nM
[32] = target: MAP kinase-interacting serine/threonine-protein kinase 1 (Homo sapiens) (UniProt Q9BUB5); conditions: Compound concentration 100.0 nM
[33] = target: Serine/threonine-protein kinase NIM1 (Homo sapiens) (UniProt Q8IY84); conditions: Compound concentration 100.0 nM
[34] = target: Serine/threonine-protein kinase 36 (Homo sapiens) (UniProt Q9NRP7); conditions: Compound concentration 100.0 nM
[35] = target: G protein-coupled receptor kinase 4 (Homo sapiens) (UniProt P32298); conditions: Compound concentration 100.0 nM
[36] = target: Protein-tyrosine kinase 6 (Homo sapiens) (UniProt Q13882); conditions: Compound concentration 100.0 nM
[37] = tested on: Phosphatidylinositol 4,5-bisphosphate 3-kinase catalytic subunit alpha isoform (Homo sapiens), P42336 [Q546K]; conditions: Compound concentration 100.0 nM
[38] = target: Aurora kinase B (Homo sapiens) (UniProt Q96GD4); conditions: Compound concentration 100.0 nM

Serine/threonine-protein kinase NIM1 (Homo sapiens), sequence (Q8IY84 whole entry): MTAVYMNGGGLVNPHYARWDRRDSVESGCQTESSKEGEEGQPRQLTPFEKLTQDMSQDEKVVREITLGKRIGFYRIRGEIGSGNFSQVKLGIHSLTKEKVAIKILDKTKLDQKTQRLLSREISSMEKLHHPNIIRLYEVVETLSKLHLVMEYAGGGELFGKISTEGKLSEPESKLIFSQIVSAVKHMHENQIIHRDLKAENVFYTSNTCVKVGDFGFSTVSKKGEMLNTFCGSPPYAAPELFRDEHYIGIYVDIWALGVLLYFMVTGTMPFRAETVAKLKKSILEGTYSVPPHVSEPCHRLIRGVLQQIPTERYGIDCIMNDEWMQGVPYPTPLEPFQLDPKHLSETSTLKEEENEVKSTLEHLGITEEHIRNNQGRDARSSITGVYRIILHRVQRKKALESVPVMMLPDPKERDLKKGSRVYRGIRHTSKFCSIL
Calcium/calmodulin-dependent protein kinase type IV (Homo sapiens), sequence (Q16566 whole entry): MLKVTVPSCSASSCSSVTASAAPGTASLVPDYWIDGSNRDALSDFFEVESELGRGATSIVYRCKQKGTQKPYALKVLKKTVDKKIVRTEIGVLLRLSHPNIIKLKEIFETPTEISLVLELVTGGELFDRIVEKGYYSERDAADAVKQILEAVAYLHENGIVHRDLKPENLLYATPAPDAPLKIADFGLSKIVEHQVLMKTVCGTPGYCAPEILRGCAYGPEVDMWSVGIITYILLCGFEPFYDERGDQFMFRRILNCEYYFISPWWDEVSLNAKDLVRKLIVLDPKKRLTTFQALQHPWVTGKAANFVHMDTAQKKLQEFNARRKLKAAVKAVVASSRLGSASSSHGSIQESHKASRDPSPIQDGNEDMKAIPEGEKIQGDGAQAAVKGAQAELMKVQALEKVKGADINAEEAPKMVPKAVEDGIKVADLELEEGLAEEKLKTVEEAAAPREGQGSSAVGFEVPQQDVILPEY
Receptor-type tyrosine-protein kinase FLT3 (Homo sapiens), sequence (P36888 whole entry): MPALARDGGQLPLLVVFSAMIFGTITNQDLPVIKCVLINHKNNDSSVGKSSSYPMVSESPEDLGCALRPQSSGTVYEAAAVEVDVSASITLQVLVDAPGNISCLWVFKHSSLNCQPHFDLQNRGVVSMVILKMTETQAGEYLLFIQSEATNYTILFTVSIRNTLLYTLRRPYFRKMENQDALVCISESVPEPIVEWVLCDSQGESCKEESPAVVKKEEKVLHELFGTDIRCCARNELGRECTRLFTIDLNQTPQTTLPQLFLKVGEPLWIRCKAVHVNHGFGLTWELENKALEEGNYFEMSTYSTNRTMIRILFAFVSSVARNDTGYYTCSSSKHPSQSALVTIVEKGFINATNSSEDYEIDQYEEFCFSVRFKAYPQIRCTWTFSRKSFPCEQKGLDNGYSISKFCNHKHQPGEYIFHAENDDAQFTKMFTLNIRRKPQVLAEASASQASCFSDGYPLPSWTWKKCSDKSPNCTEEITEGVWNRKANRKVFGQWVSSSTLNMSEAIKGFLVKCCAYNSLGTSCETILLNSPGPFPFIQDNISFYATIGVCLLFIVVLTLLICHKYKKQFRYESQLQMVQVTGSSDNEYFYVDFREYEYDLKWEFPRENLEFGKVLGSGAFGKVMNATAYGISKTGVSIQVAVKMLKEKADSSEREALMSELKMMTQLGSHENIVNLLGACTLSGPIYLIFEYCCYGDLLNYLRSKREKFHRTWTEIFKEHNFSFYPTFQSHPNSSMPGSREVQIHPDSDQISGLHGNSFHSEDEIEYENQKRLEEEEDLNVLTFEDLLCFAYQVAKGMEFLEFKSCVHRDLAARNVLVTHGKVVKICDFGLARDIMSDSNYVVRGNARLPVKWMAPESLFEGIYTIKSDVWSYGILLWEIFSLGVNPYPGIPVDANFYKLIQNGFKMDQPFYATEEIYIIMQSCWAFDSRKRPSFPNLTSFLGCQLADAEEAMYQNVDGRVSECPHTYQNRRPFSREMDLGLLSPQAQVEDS
Calcium/calmodulin-dependent protein kinase kinase 1 (Homo sapiens), sequence (Q8N5S9 whole entry, looked up): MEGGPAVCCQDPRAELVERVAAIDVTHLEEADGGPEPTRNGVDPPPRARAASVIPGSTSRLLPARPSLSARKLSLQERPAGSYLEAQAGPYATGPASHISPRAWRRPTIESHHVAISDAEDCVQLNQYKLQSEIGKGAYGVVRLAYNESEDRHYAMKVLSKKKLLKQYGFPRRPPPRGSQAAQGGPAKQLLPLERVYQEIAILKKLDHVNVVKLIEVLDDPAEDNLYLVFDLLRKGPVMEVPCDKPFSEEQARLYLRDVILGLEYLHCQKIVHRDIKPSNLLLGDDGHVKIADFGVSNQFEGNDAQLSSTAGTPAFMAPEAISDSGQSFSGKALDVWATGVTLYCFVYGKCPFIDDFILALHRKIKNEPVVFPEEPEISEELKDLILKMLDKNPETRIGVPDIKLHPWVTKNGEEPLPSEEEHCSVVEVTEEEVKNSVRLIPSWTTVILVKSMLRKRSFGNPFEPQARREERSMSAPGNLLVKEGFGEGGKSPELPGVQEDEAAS
Phosphatidylinositol 4,5-bisphosphate 3-kinase catalytic subunit alpha isoform (Homo sapiens), P42336 [Q546K], sequence (P42336 whole entry Q546K, canonical isoform): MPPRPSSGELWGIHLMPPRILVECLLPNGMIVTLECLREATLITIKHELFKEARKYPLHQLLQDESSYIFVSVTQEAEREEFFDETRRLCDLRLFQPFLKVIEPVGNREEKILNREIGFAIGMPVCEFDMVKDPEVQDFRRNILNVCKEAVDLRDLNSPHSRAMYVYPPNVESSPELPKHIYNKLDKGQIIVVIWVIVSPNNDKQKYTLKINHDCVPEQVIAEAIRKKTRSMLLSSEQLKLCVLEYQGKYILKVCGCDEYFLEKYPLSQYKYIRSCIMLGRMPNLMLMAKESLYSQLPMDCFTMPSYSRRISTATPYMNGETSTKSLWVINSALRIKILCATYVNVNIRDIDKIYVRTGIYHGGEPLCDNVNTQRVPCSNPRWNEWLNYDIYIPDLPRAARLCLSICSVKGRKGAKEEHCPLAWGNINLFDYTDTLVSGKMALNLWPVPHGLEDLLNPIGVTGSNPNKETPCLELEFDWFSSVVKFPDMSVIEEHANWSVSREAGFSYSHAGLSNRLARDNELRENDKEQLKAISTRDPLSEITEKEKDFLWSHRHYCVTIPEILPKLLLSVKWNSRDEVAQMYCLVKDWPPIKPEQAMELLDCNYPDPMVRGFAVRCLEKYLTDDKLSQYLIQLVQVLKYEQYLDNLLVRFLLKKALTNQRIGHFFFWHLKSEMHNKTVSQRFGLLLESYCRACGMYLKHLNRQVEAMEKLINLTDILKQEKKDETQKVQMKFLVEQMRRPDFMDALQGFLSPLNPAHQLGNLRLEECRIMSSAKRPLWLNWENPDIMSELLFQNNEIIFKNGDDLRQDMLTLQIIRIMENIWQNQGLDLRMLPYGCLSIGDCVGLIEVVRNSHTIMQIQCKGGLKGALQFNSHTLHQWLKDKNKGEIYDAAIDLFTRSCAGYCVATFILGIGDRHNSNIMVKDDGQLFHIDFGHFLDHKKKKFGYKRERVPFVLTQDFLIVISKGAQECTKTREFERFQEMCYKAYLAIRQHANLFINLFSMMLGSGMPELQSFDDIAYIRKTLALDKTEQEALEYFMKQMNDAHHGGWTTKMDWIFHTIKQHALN
Serine/threonine-protein kinase LATS2 (Homo sapiens), sequence (Q9NRM7 whole entry): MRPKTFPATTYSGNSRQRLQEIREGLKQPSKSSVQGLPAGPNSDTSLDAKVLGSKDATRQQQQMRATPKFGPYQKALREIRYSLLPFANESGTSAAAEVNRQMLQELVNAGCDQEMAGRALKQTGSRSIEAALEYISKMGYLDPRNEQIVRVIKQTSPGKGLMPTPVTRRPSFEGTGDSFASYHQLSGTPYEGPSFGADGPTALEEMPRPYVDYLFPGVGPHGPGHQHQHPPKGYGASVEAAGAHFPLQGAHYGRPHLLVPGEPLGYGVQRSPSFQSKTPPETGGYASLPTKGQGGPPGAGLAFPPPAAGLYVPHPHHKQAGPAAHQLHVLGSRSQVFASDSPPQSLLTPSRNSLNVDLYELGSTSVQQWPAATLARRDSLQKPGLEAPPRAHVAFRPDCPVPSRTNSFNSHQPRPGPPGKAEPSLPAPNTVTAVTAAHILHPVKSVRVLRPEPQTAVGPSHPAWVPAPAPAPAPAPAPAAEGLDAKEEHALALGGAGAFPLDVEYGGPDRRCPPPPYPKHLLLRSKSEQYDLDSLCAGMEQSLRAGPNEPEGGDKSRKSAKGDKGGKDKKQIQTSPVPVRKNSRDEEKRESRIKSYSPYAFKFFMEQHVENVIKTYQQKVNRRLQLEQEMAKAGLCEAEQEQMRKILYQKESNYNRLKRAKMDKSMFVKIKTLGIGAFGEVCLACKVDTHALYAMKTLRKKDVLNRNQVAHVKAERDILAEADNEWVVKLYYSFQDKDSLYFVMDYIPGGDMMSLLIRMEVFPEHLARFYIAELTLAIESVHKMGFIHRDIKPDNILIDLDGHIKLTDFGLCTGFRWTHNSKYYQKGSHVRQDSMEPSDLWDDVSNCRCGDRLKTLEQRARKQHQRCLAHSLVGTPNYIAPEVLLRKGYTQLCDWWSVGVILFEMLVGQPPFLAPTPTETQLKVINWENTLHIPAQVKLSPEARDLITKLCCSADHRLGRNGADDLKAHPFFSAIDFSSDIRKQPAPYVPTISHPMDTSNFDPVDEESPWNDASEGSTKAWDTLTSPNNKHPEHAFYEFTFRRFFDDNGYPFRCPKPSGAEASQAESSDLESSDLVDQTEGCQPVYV
MAP kinase-interacting serine/threonine-protein kinase 1 (Homo sapiens), sequence (Q9BUB5 whole entry, looked up): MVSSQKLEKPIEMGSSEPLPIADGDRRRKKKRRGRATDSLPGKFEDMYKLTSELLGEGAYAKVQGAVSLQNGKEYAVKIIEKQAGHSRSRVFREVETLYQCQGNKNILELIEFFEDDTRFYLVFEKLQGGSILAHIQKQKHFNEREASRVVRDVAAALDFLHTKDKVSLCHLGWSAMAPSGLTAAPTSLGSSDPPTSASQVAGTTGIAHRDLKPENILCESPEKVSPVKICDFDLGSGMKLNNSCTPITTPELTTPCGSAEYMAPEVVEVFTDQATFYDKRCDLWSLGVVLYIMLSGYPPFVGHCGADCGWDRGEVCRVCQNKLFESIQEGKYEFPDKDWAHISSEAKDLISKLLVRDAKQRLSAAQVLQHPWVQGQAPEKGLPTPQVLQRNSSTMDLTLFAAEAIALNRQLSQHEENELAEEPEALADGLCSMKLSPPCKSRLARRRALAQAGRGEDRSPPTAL

COCCOc1nc(-c2ccc(Cl)nc2)nc2c1CN(C(=O)c1ncn3ccccc13)CC2 [THPP-1]
inactive: residual activity [1] 100% | inhibition [2] 5.45% | residual activity [3] 100% | residual activity [4] 62% | residual activity [5] 97% | residual activity [6] 100% | residual activity [7] 100% | residual activity [8] 82% | residual activity [9] 95% | residual activity [10] 100% | residual activity [11] 100% | residual activity [12] 71% | residual activity [13] 100% | residual activity [14] 100% | residual activity [15] 75% | residual activity [16] 100% | residual activity [17] 73% | residual activity [18] 89% | residual activity [19] 68% | residual activity [20] 90% | residual activity [21] 97% | residual activity [22] 90% | residual activity [23] 97% | residual activity [24] 100% | residual activity [25] 100% | residual activity [26] 100% | inhibition [27] -0.41% | residual activity [28] 100% | residual activity [29] 82% | residual activity [30] 100% | residual activity [31] 100% | residual activity [32] 77% | residual activity [33] 100% | residual activity [34] 79% | residual activity [35] 73% | residual activity [36] 100% | residual activity [37] 87% | residual activity [38] 97%

CC(C)CC(=O)N1CCc2nc(-c3ccc(Br)cc3)nc(N(C)Cc3ccccc3)c2C1 [THPP-1-NC]
inactive: residual activity [1] 100% | inhibition [2] 18.3% | residual activity [3] 99% | residual activity [4] 91% | residual activity [5] 89% | residual activity [6] 100% | residual activity [7] 100% | residual activity [8] 93% | residual activity [9] 100% | residual activity [10] 95% | residual activity [11] 100% | residual activity [12] 85% | residual activity [13] 100% | residual activity [14] 100% | residual activity [15] 84% | residual activity [16] 100% | residual activity [17] 88% | residual activity [18] 88% | residual activity [19] 94% | residual activity [20] 100% | residual activity [21] 100% | residual activity [22] 63% | residual activity [23] 94% | residual activity [24] 100% | residual activity [25] 100% | residual activity [26] 100% | inhibition [27] -0.56% | residual activity [28] 100% | residual activity [29] 89% | residual activity [30] 100% | residual activity [31] 100% | residual activity [32] 69% | residual activity [33] 100% | residual activity [34] 78% | residual activity [35] 75% | residual activity [36] 100% | residual activity [37] 97% | residual activity [38] 92%
